Laboratory results as given in ChEMBL document CHEMBL5252589, “Bioactive Piperazic Acid-Bearing Cyclodepsipeptides, Lydiamycins E-H, from an Endophytic Streptomyces sp. Associated with Cinnamomum cassia” (J Nat Prod, 2023).
Values after ≈ are worked out from the molar mass of the structure shown. Active and inactive are the calls of the source. The calls are words filed in the database; no cut-off is given here.

Columns and labels:
PANC-1 [1] = experiment: Cytotoxicity against human PANC-1 cells assessed as inhibition of cell growth incubated for 72 hrs by MTT assay; type: functional, cell-based; conditions: PANC-1, 72 h
PANC-1 [2] = experiment: Antimetastatic activity in human PANC-1 cells assessed as suppression of cell migration incubated for 24 to 48 hrs by inverted microscope based scratch wound healing assay; type: functional; conditions: dose 40-80 µM, time 24-48 hrs
PANC-1 [3] = experiment: Antimetastatic activity in human PANC-1 cells assessed as suppression of cell invasion at 40 to 80 uM incubated for 24 hrs by crystal violet staining based transwell assay; type: functional; conditions: dose 40-80 µM
[4] = tested on: Mycobacterium tuberculosis; experiment: Antibacterial activity against Mycobacterium tuberculosis H37Rv ATCC 27294 assessed as inhibition of bacterial growth; type: functional
PANC-1 [5] = experiment: Antimetastatic activity in human PANC-1 cells assessed as inhibition of cell migration at 40 uM incubated for 24 hrs by inverted microscope based scratch wound healing assay relative to control; type: functional
PANC-1 [6] = experiment: Antimetastatic activity in human PANC-1 cells assessed as inhibition of cell migration at 80 uM incubated for 24 hrs by inverted microscope based scratch wound healing assay relative to control; type: functional
PANC-1 [7] = experiment: Antimetastatic activity in human PANC-1 cells assessed as inhibition of cell migration at 40 uM incubated for 48 hrs by inverted microscope based scratch wound healing assay relative to control; type: functional
PANC-1 [8] = experiment: Antimetastatic activity in human PANC-1 cells assessed as inhibition of cell migration at 80 uM incubated for 48 hrs by inverted microscope based scratch wound healing assay relative to control; type: functional
[9] = tested on: Mycobacterium tuberculosis; experiment: Antibacterial activity against Mycobacterium tuberculosis mc2 6230; type: functional
[10] = tested on: Mycobacterium tuberculosis; experiment: Antibacterial activity against Mycobacterium tuberculosis H37Rv; type: functional

Compound	IC50 (PANC-1 [1]) [µM]	Activity (PANC-1 [2])	Activity (PANC-1 [3])	MIC [4] [µg/mL]	inhibition at 40 µM (PANC-1 [5]) [%]	inhibition at 80 µM (PANC-1 [6]) [%]	inhibition at 40 µM (PANC-1 [7]) [%]	inhibition at 80 µM (PANC-1 [8]) [%]	MIC50 [9] [µg/mL]	MIC50 [10] [µg/mL]
CCCC[C@H](CC(=O)N1N=CCC[C@H]1C(=O)N[C@H]1COC(=O)[C@@H]2CCCNN2C(=O)[C@H](C)NC(=O)[C@@H](CC(C)C)NC1=O)C(=O)O	> 100	Dose-Dependent Effect	Active	> 20						
CCCCC[C@H](CC(=O)N1N=C[C@H](O)C[C@H]1C(=O)N[C@H]1COC(=O)[C@@H]2CCCNN2C(=O)[C@H](C)NC(=O)[C@@H](CC(C)C)NC1=O)C(=O)O	> 100		Active	> 20	11	19	11	26		
CC(C)C[C@H]1NC(=O)[C@@H](NC(=O)[C@@H]2CCC=NN2)COC(=O)[C@@H]2CCCNN2C(=O)[C@H](C)NC1=O	> 100	Dose-Dependent Effect	Active	> 20						
CC(C)C[C@H]1NC(=O)[C@@H](NC(=O)[C@@H]2CCC=NN2C(=O)CCC(=O)O)COC(=O)[C@@H]2CCCNN2C(=O)[C@H](C)NC1=O	> 100	Dose-Dependent Effect	Active	> 20						
CCCCC[C@H](CC(=O)N1N=CCC[C@H]1C(=O)N[C@H]1COC(=O)[C@@H]2CCCNN2C(=O)[C@H](C)NC(=O)[C@@H](CC(C)C)NC1=O)C(=O)O	> 100		Active	> 20	36	45	11	49	31 (≈ 46.7 µM)	12.5 (≈ 18.8 µM)
